# Laboratory results taken from US20240374590A1, “COMPOSITIONS AND METHODS FOR TREATING CANCER” (A2A PHARMACEUTICALS, INC., priority 2021, published 2024).
# Legend:
# [1] = tested on: JIMT-1 human breast cancer cell line; assay: Cell viability assay (SRB) in JIMT-1; assay type: cell-based; conditions: 72 hours after treatment, read-out: JIMT1 IC50
# Protocol: (§1) Human colon carcinoma cell line HCT-116 was a kind gift from Igor Ronninson from University of South Caroli, Columbia, USA. Human breast cancer cell line, JIMT-1 was kindly provided by Ali Osmay Güre from Bilkent University, Ankara, Turkey. Cells were cultured in Dulbecco's modified Eagle's medium (Lonza, NJ, USA), supplemented with 10% fetal bovine serum (FBS, Lonza), 1% non-essential amino acid (NEAA), 2 mM L-glutamine (Sigma Aldrich, MO, USA) and 50 U/ml penicillin/streptomycin (P/S). HCT-116 cells were cultured in McCoy's 5A (modified) (Gibco) medium supplemented with FBS, NEAA, L-glutamine and P/S. All cell lines were tested regularly using MycoAlert Mycoplasma Detection Kit (Lonza). The cumulative length of the cells between thawing and use in the experiments was less than 20 passages.
# (§2) Newly synthesized molecules were dissolved in 100% DMSO to yield a stock concentration of 10 mM. For cell viability assay, JIMT-1 (3×10^3 cells/well) and HCT-116 (4×10^3), cells were seeded into 96-well plates, and 24 hours after cell seeding inhibitor treatments were performed at different concentrations. Cell viability was measured 72 hours after treatment with Sulforhodamine B (SRB, Sigma Aldrich) assay as recommended by the manufacturer.
# [2] = tested on: HCT-116 human colon carcinoma cell line; assay: Cell viability assay (SRB) in HCT-116; assay type: cell-based; conditions: 72 hours after treatment, read-out: HCT116 IC50
# Protocol: as §1, §2
SMILES,IC50 [1],IC50 [2]
"COc1ccc(-c2cc(Nc3ccnc(N4CCC(C(F)(F)F)CC4)n3)[nH]n2)c(F)c1 [Compound 132, N-(3-(2-fluoro-4-methoxyphenyl)-1H-pyrazol-5-yl)-2-(4-(trifluoromethyl)piperidin-1-yl)pyrimidin-4-amine]",18 nM,38 nM
"COc1ccc(-c2cc(Nc3ccnc(N4CCOCC4C)n3)[nH]n2)c(F)c1 (centres unmarked) [Compound 138, N-(3-(2-fluoro-4-methoxyphenyl)-1H-pyrazol-5-yl)-2-(3-methylmorpholino)pyrimidin-4-amine]",15 nM,52 nM
"COc1ccc(-c2cc(Nc3ccnc(N4CCOC(C(F)(F)F)C4)n3)[nH]n2)c(F)c1 (centres unmarked) [Compound 139, N-(3-(2-fluoro-4-methoxyphenyl)-1H-pyrazol-5-yl)-2-(2-(trifluoromethyl)morpholino)pyrimidin-4-amine]",91 nM,146 nM
"COc1ccc(-c2cc(Nc3ccnc(N4CCC5(CCC5)CC4)n3)[nH]n2)c(F)c1 [Compound 142, N-(3-(2-fluoro-4-methoxyphenyl)-1H-pyrazol-5-yl)-2-(7-azaspiro[3.5]nonan-7-yl)pyrimidin-4-amine]",266 nM,1210 nM
"COc1ccc(-c2cc(Nc3ccnc(N4CCC(C)(C)CC4)n3)[nH]n2)c(F)c1 [Compound 143, 2-(4,4-dimethylpiperidin-1-yl)-N-(3-(2-fluoro-4-methoxyphenyl)-1H-pyrazol-5-yl)pyrimidin-4-amine]",426 nM,1010 nM
"COc1ccc(-c2cc(Nc3ccnc(N4CCC5(CC4)CC5)n3)[nH]n2)c(F)c1 [Compound 144, N-(3-(2-fluoro-4-methoxyphenyl)-1H-pyrazol-5-yl)-2-(6-azaspiro[2.5]octan-6-yl)pyrimidin-4-amine]",119 nM,330 nM
"COc1ccc(-c2cc(Nc3ccnc(N4C5CCC4CC(C)C5)n3)[nH]n2)c(F)c1 (centres unmarked) [Compound 145, N-(3-(2-fluoro-4-methoxyphenyl)-1H-pyrazol-5-yl)-2-(3-methyl-8-azabicyclo[3.2.1]octan-8-yl)pyrimidin-4-amine]",101 nM,279 nM
"COc1ccc(-c2cc(Nc3ccnc(N4CC5(COC5)C4)n3)[nH]n2)c(F)c1 [Compound 146, N-(3-(2-fluoro-4-methoxyphenyl)-1H-pyrazol-5-yl)-2-(2-oxa-6-azaspiro[3.3]heptan-6-yl)pyrimidin-4-amine]",479 nM,534 nM
"COc1ccc(-c2cc(Nc3ccnc(N4CCCC4)n3)[nH]n2)c(F)c1 [Compound 151, N-(3-(2-fluoro-4-methoxyphenyl)-1H-pyrazol-5-yl)-2-(pyrrolidin-1-yl)pyrimidin-4-amine]",18 nM,52 nM
"COc1ccc(-c2cc(Nc3ccnc(N4CCCCC4)n3)[nH]n2)c(F)c1 [Compound 152, N-(3-(2-fluoro-4-methoxyphenyl)-1H-pyrazol-5-yl)-2-(piperidin-1-yl)pyrimidin-4-amine]",5 nM,11 nM
"COc1ccc(-c2cc(Nc3ccnc(N4CCCC4C)n3)[nH]n2)c(F)c1 (centres unmarked) [Compound 159, N-(3-(2-fluoro-4-methoxyphenyl)-1H-pyrazol-5-yl)-2-(2-methylpyrrolidin-1-yl)pyrimidin-4-amine]",47 nM,76 nM
"COc1ccc(-c2cc(Nc3ccnc(N4CCCCCC4)n3)[nH]n2)c(F)c1 [Compound 167, 2-(azepan-1-yl)-N-(3-(2-fluoro-4-methoxyphenyl)-1H-pyrazol-5-yl)pyrimidin-4-amine]",41 nM,89 nM
"COc1ccc(-c2n[nH]c(Nc3ccnc(N4CCOCC4)n3)c2C)cc1 [Compound 181, N-(3-(4-methoxyphenyl)-4-methyl-1H-pyrazol-5-yl)-2-morpholinopyrimidin-4-amine]",2630 nM,4480 nM
"COc1ccc(-c2cc(Nc3ccnc(N4CCOCC4)n3)n(C)n2)cc1 [Compound 184, N-(3-(4-methoxyphenyl)-1-methyl-1H-pyrazol-5-yl)-2-morpholinopyrimidin-4-amine]",8790 nM,20000 nM
"C[C@@H]1CN(c2nccc(Nc3cc(-c4ccc(C#N)cc4)n[nH]3)n2)C[C@H](C)O1 [Compound 191b, 4-(5-((2-((2R,6S)-2,6-dimethylmorpholino)pyrimidin-4-yl)amino)-1H-pyrazol-3-yl)benzonitrile]",1570 nM,1520 nM

# More lines, now with the values ahead:
IC50 [1],IC50 [2],SMILES
606 nM,6560 nM,"COc1ccc(-c2cc(Nc3ccnc(N4CC(C)(C)OC(C)(C)C4)n3)[nH]n2)c(F)c1 [Compound 133, N-(3-(2-fluoro-4-methoxyphenyl)-1H-pyrazol-5-yl)-2-(2,2,6,6-tetramethylmorpholino)pyrimidin-4-amine]"
230 nM,880 nM,"COc1ccc(-c2cc(Nc3ccnc(N4CCOC(C)(C)C4)n3)[nH]n2)c(F)c1 [Compound 135, 2-(2,2-dimethylmorpholino)-N-(3-(2-fluoro-4-methoxyphenyl)-1H-pyrazol-5-yl)pyrimidin-4-amine]"
895 nM,1300 nM,"COc1ccc(-c2cc(Nc3ccnc(N4C(C)COCC4C)n3)[nH]n2)c(F)c1 (centres unmarked) [Compound 136, 2-(3,5-dimethylmorpholino)-N-(3-(2-fluoro-4-methoxyphenyl)-1H-pyrazol-5-yl)pyrimidin-4-amine]"
24 nM,59 nM,"COc1ccc(-c2cc(Nc3ccnc(N4CCOC(C)C4)n3)[nH]n2)c(F)c1 (centres unmarked) [Compound 137, N-(3-(2-fluoro-4-methoxyphenyl)-1H-pyrazol-5-yl)-2-(2-methylmorpholino)pyrimidin-4-amine]"
107 nM,457 nM,"COc1ccc(-c2cc(Nc3ccnc(N4CC5COCC5C4)n3)[nH]n2)c(F)c1 (centres unmarked) [Compound 140, N-(3-(2-fluoro-4-methoxyphenyl)-1H-pyrazol-5-yl)-2-(tetrahydro-1H-furo[3,4-c]pyrrol-5(3H)-yl)pyrimidin-4-amine]"
41 nM,163 nM,"COc1ccc(-c2cc(Nc3ccnc(N4CC5CC5C4)n3)[nH]n2)c(F)c1 (centres unmarked) [Compound 141, 2-(3-azabicyclo[3.1.0]hexan-3-yl)-N-(3-(2-fluoro-4-methoxyphenyl)-1H-pyrazol-5-yl)pyrimidin-4-amine]"
213 nM,986 nM,"COc1ccc(-c2cc(Nc3ccnc(N4CCN(C)CC4)n3)[nH]n2)c(F)c1 [Compound 148, N-(3-(2-fluoro-4-methoxyphenyl)-1H-pyrazol-5-yl)-2-(4-methylpiperazin-1-yl)pyrimidin-4-amine]"
65 nM,115 nM,"COc1ccc(-c2cc(Nc3ccnc(N4C[C@@H](C)O[C@H](C)C4)n3)[nH]n2)c(F)c1 [Compound 149, 2-((2R,6R)-2,6-dimethylmorpholino)-N-(3-(2-fluoro-4-methoxyphenyl)-1H-pyrazol-5-yl)pyrimidin-4-amine]"
16 nM,23 nM,"COc1ccc(-c2cc(Nc3ccnc(N4C[C@H](C)O[C@@H](C)C4)n3)[nH]n2)c(F)c1 [Compound 150, 2-((2S,6S)-2,6-dimethylmorpholino)-N-(3-(2-fluoro-4-methoxyphenyl)-1H-pyrazol-5-yl)pyrimidin-4-amine]"
6 nM,10 nM,"COc1ccc(-c2cc(Nc3ccnc(N4CCC4)n3)[nH]n2)c(F)c1 [Compound 153, 2-(azetidin-1-yl)-N-(3-(2-fluoro-4-methoxyphenyl)-1H-pyrazol-5-yl)pyrimidin-4-amine]"
39 nM,147 nM,"COc1ccc(-c2cc(Nc3ccnc(N4CCC(C)C4)n3)[nH]n2)c(F)c1 (centres unmarked) [Compound 160, N-(3-(2-fluoro-4-methoxyphenyl)-1H-pyrazol-5-yl)-2-(3-methylpyrrolidin-1-yl)pyrimidin-4-amine]"
158 nM,228 nM,"COc1ccc(-c2cc(Nc3ccnc(N4C[C@@H](C)O[C@@H](C)C4)n3)n(C)n2)c(F)c1 [Compound 187, 2-((2R,6S)-2,6-dimethylmorpholino)-N-(3-(2-fluoro-4-methoxyphenyl)-1-methyl-1H-pyrazol-5-yl)pyrimidin-4-amine]"
251 nM,484 nM,"COc1ccc(-c2cc(Nc3ccnc(N4C[C@@H](C)O[C@@H](C)C4)n3)nn2C)c(F)c1 [Compound 190, 2-((2R,6S)-2,6-dimethylmorpholino)-N-(5-(2-fluoro-4-methoxyphenyl)-1-methyl-1H-pyrazol-3-yl)pyrimidin-4-amine]"
4640 nM,8970 nM,"C[C@@H]1CN(c2nccc(Nc3cc(-c4ccc(OC(F)(F)F)c(Cl)c4)n[nH]3)n2)C[C@H](C)O1 [Compound 192b, N-(3-(3-chloro-4-(trifluoromethoxy)phenyl)-1H-pyrazol-5-yl)-2-((2R,6S)-2,6-dimethylmorpholino)pyrimidin-4-amine]"
383 nM,619 nM,"C[C@@H]1CN(c2nccc(Nc3cc(-c4ccc(F)cc4)[nH]n3)n2)C[C@H](C)O1 [Compound 196, 2-((2R,6S)-2,6-dimethylmorpholino)-N-(5-(4-fluorophenyl)-1H-pyrazol-3-yl)pyrimidin-4-amine]"
143 nM,386 nM,"C[C@@H]1CN(c2nccc(Nc3cc(-c4ccc(C(C)(F)F)cc4)n[nH]3)n2)C[C@H](C)O1 [Compound 200, N-(3-(4-(1,1-difluoroethyl)phenyl)-1H-pyrazol-5-yl)-2-((2R,6S)-2,6-dimethylmorpholino)pyrimidin-4-amine]"
